These results are taken from patent US20240216385A1, “A PI3K-DELTA INHIBITOR FOR THE TREATMENT OF PANCREATIC CANCER” (IONCTURA SA, priority 2021, published 2024).

In assay [1] the test system is KPC/WCB3 cells orthotopically injected into the pancreas. In words: KPC/WCB3 orthotopic mouse model of pancreatic cancer, histological analysis of pancreata. The format is in vivo. The conditions noted are these: orthotopic KPC/WCB3, C57BL/6J mice; treatment from day 7 for one month; FIG. 4. The text has this:
This model is constituted by the implantation of KPC/WBC3 cells originating from a spontaneous developed donor tumour in KPC mice into the pancreas of male wildtype C57BL/6J recipient mice. The pathology and tumour microenvironment in this model closely resemble human pancreatic cancer.
Control animals received normal drinking water and standard chow. One month after initiation treatment was stopped and mice were euthanized. Pancreata were harvested and analysed by histological analysis for level of fibrosis, number of Tregs and number of proliferating CAFs.

The test system of assay [2] is KPC mouse model of pancreatic ductal adenocarcinoma (PDAC). Briefly: KPC mouse model of pancreatic cancer, histological analysis of pancreata. It counts as in vivo. To be noted: KPC mice treated from 5 to 11 weeks of age; Compound 2 in mixed chow; FIG. 1. The text has this: Control animals received normal drinking water and standard chow.
The next assay concerns pancreatic cancer. The conditions noted are these: pancreatic cancer patients, standard treatment; cited from earlier work.

As to `C[C@H](NC(=O)CCc1nc2cccnc2n1Cc1ccc(OC(F)(F)F)cc1)c1ccc(Cl)cc1` [Compound 2, N-[(S)-1-(4-chloro-phenyl)-ethyl]-3-[3-(4-trifluoromethoxy-benzyl)-3H-imidazo[4,5-b]pyridin-2-yl]-propionamide], in assay [1], the Tregs result is “significantly reduces”, the “proliferating CAFs” value was “significantly reduces” and the tumour fibrosis score result is “limited effect”. In assay [2], the “number of low-grade (PanIN-1 and PanIN-2) lesions” value is “reduces”; the tumour burden result was “without having significant effects”.
As for `Nc1ccn([C@@H]2O[C@H](CO)[C@@H](O)C2(F)F)c(=O)n1` [gemcitabine], in the assay on pancreatic cancer, the “average median overall survival” value was 6 months and the response rate is on record as 5-10%.
